In one data set the target is EGFR wild-type kinase (Homo sapiens, UniProt P00533). Kind of data set: Kinase ELISA assay, wild-type EGFR. It is filed as biochemical. The procedure:
(§1) Four kinases (EGFR, EGFR^L858R/T790M, ALK, and EML4-ALK) were tested using an ELISA assay. […] There was no effect on the wild-type EGFR or ALK kinases triggered by the compound. Consequently, the selection of the compound was good as both compounds balanced IC50 against EGFR and ALK, respectively. […] Following that, fluorescence assays were used to measure the phosphorylation of the EGFR and ALK protein affect with compound 9j at the cellular level. […] Next, WB assay was used to test the protein expression of H1975 and H2228 cells at the concentration of 5, 10, and 100 nM.
In general terms: ELISA stands for enzyme-linked immunosorbent assay.

The subject of data set [1] is 293A (human embryonic kidney cells). Kind of data set: Cytotoxicity test on nontumorigenic cells, 293A. It is filed as cell-based. An excerpt:
(§2) It is critical to evaluate the balance between the safety and efficacy of drugs for the development of new drugs; thus, we then conducted a cytotoxicity test on […] types of nontumorigenic cell lines from different origins, including LO2 (human normal liver cells), HK2 (human kidney proximal convoluted tubule epithelial cells), HLF (human embryonic lung fibroblast), 293A (human embryonic kidney cells), and HUVEC (human umbilical vein endothelial cells). […] In addition, we evaluated the compound’s safety in vivo by performing acute toxicity tests in mice, and 9j was injected intravenously at concentrations of 100 mg/kg, 150 mg/kg, and 300 mg/kg.
(§3) A total of 7000 cells per well were seeded in a 96-well plate with at least three technical replicates; then, exposed to different concentrations (10, 5, 1, 0.1, 0.05, 0.01 uM) of the test compounds for 72 h. After the treatment, CCK8 (Sigma, St. Louis, MO, USA) was added to each well under sterile conditions (to a final concentration of 10% of the total volume) and the plates were incubated for 2–4 h at 37 °C. Absorbance was measured at 450 nm in a microplate reader.

Data set [2] deals with H1975 (EGFR T790M/L858R) cells. Kind of data set: CCK8 antiproliferative assay, H1975 cells. The format is cell-based, human. Particulars: Homo sapiens. An excerpt:
The human cancer cell lines (H1975, H2228) used in this study were purchased from the Guangzhou ginny ou biotechnology Co., Ltd. (Guangzhou, China). The human cancer cell lines (NCI-H522) used in this study were purchased from the Shenzhen Haodi Huatuo Biotechnology Co., LTD (Shenzhen, China). The human cancer cell lines (LOVO, HLF, BJ, LO2) used in this study were purchased from the Laboratory Animal Service Center at Sun Yat-sen University (Guangzhou, China). […] Cell lines LOVO, HLF, BJ, and LO2 were cultivated in DMEM containing 10% (v/v) heat-inactivated fetal bovine serum (FBS), 100 units/mL penicillin, and 100 μg/mL streptomycin.

Another data set deals with H1975 cells. Kind of data set: Transwell migration and invasion assay. It is filed as cell-based, human. The procedure: The migration and invasion of tumor cells directly contribute to metastasis. Metastasis is the leading cause of death in cancer patients. To determine the ability of 9j to inhibit tumor cell migration, the cell scratching assay was performed. Following scratching, phase contrast pictures were taken of the scratched and healing cell monolayers.
Migration assay was performed using an 8 um pore Boyden chamber (24-well, #353097, Corning, NY, USA), and incubated in the presence or absence of compound 9j. A total of 50,000 cells were seeded in serum-free medium in the top chamber and allowed to migrate for 48 h toward the bottom chamber containing 10% fetal bovine serum medium. Cells were fixed and permeabilized with cold 70% ethanol and methanol, and stained with 0.4% crystal violet. The average number of migrating cells was evaluated from at least four independent microscope fields.

The subject of a further data set is mice. Kind of data set: Acute toxicity test in mice. Particulars: injected intravenously, 100, 150 and 300 mg/kg (Figure S1).
Text: as §2

For a further data set, the system named is p-AKT. Kind of data set: Western blot, p-AKT. It is filed as cell-based, human. As to conditions: WB, 5, 10 and 100 nM, 3 h treatment. As to the method: as §1
(§4) H1975 (H2228) cells seeded in 60 mm dishes at a density of 5 × 10^5 cells/well were incubated with or without compound 9j (0, 5, 10, 100 nM) for 2–4 h. After treatment, cells were stained as previously described.

The next data set has as its system p-EGFR. Put plainly: Western blot, p-EGFR. It is filed as cell-based, human. Particulars: WB, 5, 10 and 100 nM, 3 h treatment. As to the method: as §1, §4
The test system of data set [3] is HUVEC (human umbilical vein endothelial cells). Kind of data set: Cytotoxicity test on nontumorigenic cells, HUVEC. The format is cell-based.
Text: as §2, §3

For a further data set, the system named is H522 cells. Put plainly: CCK8 antiproliferative assay, H522 cells. The format is cell-based. Particulars: Homo sapiens, NCI-H522, 72 h. An excerpt: The human cancer cell lines (H1975, H2228) used in this study were purchased from the Guangzhou ginny ou biotechnology Co., Ltd. (Guangzhou, China). The human cancer cell lines (NCI-H522) used in this study were purchased from the Shenzhen Haodi Huatuo Biotechnology Co., LTD (Shenzhen, China). The human cancer cell lines (LOVO, HLF, BJ, LO2) used in this study were purchased from the Laboratory Animal Service Center at Sun Yat-sen University (Guangzhou, China). Cell lines were cultivated in 1640 containing 10% (v/v) heat-inactivated fetal bovine serum (FBS), 100 units/mL penicillin, and 100 μg/mL streptomycin. Cell lines LOVO, HLF, BJ, and LO2 were cultivated in DMEM containing 10% (v/v) heat-inactivated fetal bovine serum (FBS), 100 units/mL penicillin, and 100 μg/mL streptomycin.
(Tetrazolium dyes change colour on reduction, which living cells bring about.)

Like-named read-outs stand apart in the source and are kept apart here.

EGFR wild-type kinase, sequence (P00533 25-1210): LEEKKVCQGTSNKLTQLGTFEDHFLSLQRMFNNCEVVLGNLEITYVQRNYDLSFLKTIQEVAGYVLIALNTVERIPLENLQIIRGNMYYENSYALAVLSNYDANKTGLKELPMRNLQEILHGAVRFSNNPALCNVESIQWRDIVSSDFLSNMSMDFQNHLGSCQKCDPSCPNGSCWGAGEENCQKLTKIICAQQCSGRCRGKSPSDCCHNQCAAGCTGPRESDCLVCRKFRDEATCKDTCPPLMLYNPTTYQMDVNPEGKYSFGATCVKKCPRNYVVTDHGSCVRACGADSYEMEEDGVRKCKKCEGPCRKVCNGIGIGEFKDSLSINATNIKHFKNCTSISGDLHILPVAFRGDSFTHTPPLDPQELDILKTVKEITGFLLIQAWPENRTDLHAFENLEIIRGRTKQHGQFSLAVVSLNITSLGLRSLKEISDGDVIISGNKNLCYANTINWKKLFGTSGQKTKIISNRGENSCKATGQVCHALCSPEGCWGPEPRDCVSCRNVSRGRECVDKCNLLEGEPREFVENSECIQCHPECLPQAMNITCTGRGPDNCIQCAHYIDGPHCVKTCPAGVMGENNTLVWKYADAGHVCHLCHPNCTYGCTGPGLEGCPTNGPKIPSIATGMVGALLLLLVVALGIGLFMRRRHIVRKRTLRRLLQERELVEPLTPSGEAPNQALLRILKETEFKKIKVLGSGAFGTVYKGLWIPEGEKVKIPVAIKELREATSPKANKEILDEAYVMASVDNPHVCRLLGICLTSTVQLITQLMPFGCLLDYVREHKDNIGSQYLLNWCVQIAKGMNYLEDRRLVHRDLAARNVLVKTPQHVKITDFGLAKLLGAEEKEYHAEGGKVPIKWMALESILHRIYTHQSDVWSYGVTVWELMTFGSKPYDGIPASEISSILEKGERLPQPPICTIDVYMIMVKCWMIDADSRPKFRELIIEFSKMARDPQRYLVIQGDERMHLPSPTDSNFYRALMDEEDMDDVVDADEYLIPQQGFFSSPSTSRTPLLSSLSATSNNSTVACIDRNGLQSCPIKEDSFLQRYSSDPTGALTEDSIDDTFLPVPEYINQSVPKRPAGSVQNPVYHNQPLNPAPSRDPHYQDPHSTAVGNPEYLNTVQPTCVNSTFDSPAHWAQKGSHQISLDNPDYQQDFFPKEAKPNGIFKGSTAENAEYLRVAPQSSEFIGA

`C=CC(=O)Nc1cc(Nc2ncc(Cl)c(Nc3ccc(Cl)cc3[S+]([O-])C(C)C)n2)c(OC)cc1C1CCN(C)CC1` (stereo not drawn) [9j, N-(5-((5-Chloro-4-((4-chloro-2-(isopropylsulfinyl)phenyl)amino)pyrimidin-2-yl)amino)-4-methoxy-2-(1-methylpiperidin-4-yl)phenyl)acrylamide]: the IC50 is 236 ± 27 nM at EGFR wild-type kinase; 20000 ± 50 nM in [1] (Homo sapiens, 293A, mean ± SE, read-out: Toxicity to normal cells, IC50 293A); 78.3 ± 30 nM in [2] (NCI-H1975, 72 h, CCK8 assay, 72 h, H1975 (EGFR T790M/L858R), read-out: IC50 H1975); 78.3 ± 30 nM in data set [2] (NCI-H1975, H1975, mean ± SE, unit inferred, read-out: IC50 H1975 (Table 2)); 21360 ± 60 nM in [3] (Homo sapiens, HUVEC, mean ± SE, read-out: Toxicity to normal cells, IC50 HUVEC); greater than 10000 nM with H522 cells. Besides, the “Selectivity Ratio (IC50 human normal cells)/(IC50 H1975), 293A” value in data set [1] (293A vs H1975) turned out to be 255.5. In the data set with H1975 cells, the invasion ability result is “reduced its invasion ability in a concentration-dependent manner”. The “HE staining of lung and heart tissues” value with mice was “did not indicate toxicity”. Also, the “expression of p-AKT” value in the data set on p-AKT is “inhibited”. In addition, the “expression of p-EGFR” value with p-EGFR is given as “inhibited”. For the same compound, the “Selectivity Ratio (IC50 human normal cells)/(IC50 H1975), HUVEC” value in data set [3] (HUVEC vs H1975) is given as 273.8.

One may read the IC50 as the concentration that inhibits the measured activity by half.

The values above are taken from article PMC10004195, “Novel Dual-Target Kinase Inhibitors of EGFR and ALK Were Designed, Synthesized, and Induced Cell Apoptosis in Non-Small Cell Lung Cancer” (Molecules, 2023).
